Data on 8 molecules can be found in patent US20130231311A1, “NOVEL FORMULATIONS FOR TREATMENT OF MIGRAINE” (ZOGENIX, INC., priority 2008, published 2013).

For data set [1] the following is noted: in vivo; cited from earlier work.
The subject of data set [2] is migraine. To be noted: cited from earlier work.
The nature of data set [3]: time to peak plasma concentration of triptans (FIG. 3). To be noted: in vivo.
The nature of data set [4]: pharmacokinetic parameters of injected versus oral sumatriptan (FIG. 2). Conditions: injected vs oral; injected dose is 3% of the oral dose. Format: in vivo. The source says:
(§1) FIG. 2 is a Table comparing pharmacokinetic and pharmacodynamic parameters of subcutaneously injected and oral sumatriptan.
(§2) FIG. 2 compares pharmacokinetic parameters of injected sumatriptan with oral sumatriptan.

The test system of data set [5] is migraine. Briefly: pain relief at 2 hours, injected versus oral sumatriptan (FIG. 2). The format is in vivo. To be noted: via injection, 107 minutes after maximum plasma concentration.
Text: as §1, §2

In data set [6] the test system is migraine. To be noted: in vivo; cited from earlier work.

Values joined by “and” are separate entries in the source; they are usually repeats but may differ in a detail not shown here. Equal values may be shown once. Read-outs that look alike come from different tables or passages of the source.

As to `CN(C)CCc1c[nH]c2ccc(CS(=O)(=O)N3CCCC3)cc12` [almotriptan], the half life in data set [1] was 3 to 4 h.

With `O=C(O)Cc1ccccc1Nc1c(Cl)cccc1Cl` [diclofenac], the effectiveness is 70% and 88% in data set [2] (intramuscular); 44% in data set [2] (oral).

As for `CN1CCC[C@@H]1Cc1c[nH]c2ccc(CCS(=O)(=O)c3ccccc3)cc12` [eletriptan], the half life in data set [1] is 4 h.

`CN[C@@H]1CCc2[nH]c3ccc(C(N)=O)cc3c2C1` [frovatriptan]: the half life in data set [1] was 26 h.

Regarding `CNS(=O)(=O)CCc1ccc2[nH]cc(C3CCN(C)CC3)c2c1` [naratriptan], in data set [1], the half life was 5 to 8 h.

For `CN(C)CCc1c[nH]c2ccc(Cn3cncn3)cc12` [rizatriptan], the half life in data set [1] is 2 to 3 h. For the same molecule, the “time to peak plasma concentration, earlier than sumatriptan and zolmitriptan” value in data set [3] is ~1 h.

With `CNS(=O)(=O)Cc1ccc2[nH]cc(CCN(C)C)c2c1` [sumatriptan], in data set [4], the “AUC relative to oral dose” value is on record as “about ⅕” and the “maximum concentration relative to oral dose” value is on record as “approximately half”. The “pain relief at 2 hours, injected vs oral dose” value in data set [5] was “better for the injected dose than for the oral dose”. Besides, the half life in data set [1] was 2.5 h. Besides, the “pain relief at two hours compared with rizatriptan” value in data set [6] is listed as “less than that of rizatriptan”.

Regarding `CN(C)CCc1c[nH]c2ccc(C[C@H]3COC(=O)N3)cc12` [zolmitriptan], the half life in data set [1] is 3 h. In addition, the “pain relief at two hours compared with rizatriptan” value in data set [6] is given as “less than that of rizatriptan”.
